Measurements published in ChEMBL document CHEMBL2413068, “Solid-phase synthesis of 5'-triphosphate 2'-5'-oligoadenylates analogs with 3'-O-biolabile groups and their evaluation as RNase L activators and antiviral drugs” (Bioorg Med Chem, 2013).
Active and inactive are the calls of the source. The calls are words filed in the database; no cut-off is given here.

What was measured:
[1] = target: T1, 2-5A-dependent ribonuclease (Homo sapiens, UniProt Q05823); assay: Activation of human recombinant RNase L endonuclease activity using 6-FAM-UUAUCAAAUUCUUAUUUGCCCCAUUUUUUUGGUUUA-BHQ-1 as substrate assessed as substrate cleavage measured for 50 mins by FRET assay
T1 sequence (Q05823 whole entry): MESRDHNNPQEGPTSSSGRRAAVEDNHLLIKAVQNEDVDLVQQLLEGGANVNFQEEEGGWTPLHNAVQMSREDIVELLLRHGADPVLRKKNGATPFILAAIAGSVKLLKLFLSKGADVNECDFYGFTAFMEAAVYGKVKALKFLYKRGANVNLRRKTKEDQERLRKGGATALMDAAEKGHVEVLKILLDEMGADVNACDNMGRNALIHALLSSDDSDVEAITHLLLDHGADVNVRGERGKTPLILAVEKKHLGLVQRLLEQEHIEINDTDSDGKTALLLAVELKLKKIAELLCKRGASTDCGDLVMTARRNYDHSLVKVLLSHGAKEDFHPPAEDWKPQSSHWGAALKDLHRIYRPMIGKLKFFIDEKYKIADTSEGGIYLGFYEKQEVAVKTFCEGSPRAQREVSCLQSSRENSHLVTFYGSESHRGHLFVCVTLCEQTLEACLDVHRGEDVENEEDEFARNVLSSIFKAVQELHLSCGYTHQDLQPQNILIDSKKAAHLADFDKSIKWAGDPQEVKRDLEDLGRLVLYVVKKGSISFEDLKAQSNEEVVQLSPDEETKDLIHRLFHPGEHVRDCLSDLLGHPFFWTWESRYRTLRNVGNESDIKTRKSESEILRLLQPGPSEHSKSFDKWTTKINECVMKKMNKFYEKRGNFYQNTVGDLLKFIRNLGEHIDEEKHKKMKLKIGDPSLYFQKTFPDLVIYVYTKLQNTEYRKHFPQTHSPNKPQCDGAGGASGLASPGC

[2] = system: Vero; assay: Cytotoxicity against Respiratory syncytial virus A2 infected african green monkey Vero cells at 33.3 uM by Hucker's crystal violet staining; type: cell-based; settings: chlorocebus sabaeus
[3] = system: Vero; assay: Cytotoxicity against african green monkey Vero cells assessed as cell viability up to 100 uM by Hucker's crystal violet staining; type: cell-based; settings: chlorocebus sabaeus
[4] = system: Respiratory syncytial virus; assay: Antiviral activity against Respiratory syncytial virus A2 infected in african green monkey Vero cells assessed as reduction of virus-induced cytopathic effect at >= 15 nM pretreated 2 hrs before viral infection measured daily using hucker's crystal violet staining; type: functional, organism-based
[5] = system: Influenza A virus; assay: Antiviral activity against Influenza A virus (A/WSN/1933(H1N1)) infected in human A549 cells assessed as reduction of viral RNA level my measuring luminescence after 72 hrs by RT-PCR analysis; type: functional, organism-based; settings: A549, 72 h
[6] = Selectivity index, ratio of CC50 for human A549 cells to EC50 for Influenza A virus (A/WSN/1933(H1N1)); type: toxicity, cell-based; settings: read-out: Ratio CC50/EC50
[7] = Cytotoxicity against human A549 cells after 72 hrs by Cell Titer-Glo assay; type: cell-based

Compound	EC50 [1]	Activity [2]	Activity [3]	Activity [4]	EC50 [5]	selectivity ratio [6]	CC50 at 72 h [7]
CC(C)(C)C(=O)OCO[C@H]1[C@@H](O)[C@H](n2cnc3ncnc(N)c32)O[C@@H]1COP(=O)(O)O[C@@H]1[C@H](OCOC(=O)C(C)(C)C)[C@@H](COP(=O)(O)O[C@@H]2[C@H](OCOC(=O)C(C)(C)C)[C@@H](COP(=O)(O)O[C@@H]3[C@H](OCOC(=O)C(C)(C)C)[C@@H](COP(=O)(O)OP(=O)(O)OP(=O)(O)O)O[C@H]3n3cnc4ncnc(N)c43)O[C@H]2n2cnc3ncnc(N)c32)O[C@H]1n1cnc2ncnc(N)c21	241 nM	–	–	–	–	–	–
Nc1ncnc2ncn([C@@H]3O[C@H](COP(=O)(O)O[C@@H]4[C@H](O)[C@@H](COP(=O)(O)O[C@@H]5[C@H](O)[C@@H](COP(=O)(O)O[C@@H]6[C@H](O)[C@@H](COP(=O)(O)OP(=O)(O)OP(=O)(O)O)O[C@H]6n6cnc7ncnc(N)c76)O[C@H]5n5cnc6ncnc(N)c65)O[C@H]4n4cnc5ncnc(N)c54)[C@@H](O)[C@H]3O)c12	6.1 nM	–	–	–	–	–	–
CC(C)(C)C(=O)OCO[C@H]1[C@@H](O)[C@H](n2cnc3ncnc(N)c32)O[C@@H]1COP(=O)(O)O[C@@H]1[C@H](OCOC(=O)C(C)(C)C)[C@@H](COP(=O)(O)O[C@@H]2[C@H](OCOC(=O)C(C)(C)C)[C@@H](COP(=O)(O)OP(=O)(O)OP(=O)(O)O)O[C@H]2n2cnc3ncnc(N)c32)O[C@H]1n1cnc2ncnc(N)c21	19.1 nM	Toxic	Non-toxic	Active	14600 nM	3	47000 nM
